Results as given in US8277807B2, “Pharmaceutical combinations” (Astex Therapeutics Limited, priority 2006, dated 2012).
Where a name gives a salt, the structure may show the parent alone. One block for each molecule: values may come before it.

How the values were obtained:
[1] = Salt properties of the L-lactate of compound (1); type: physicochemical
[2] = test system: HCT116 cell line; assay: Anti-proliferative activity, Alamar Blue assay; type: cell-based; details: Homo sapiens, HCT-116, 72 h, read-out: IC50 value against the HCT116 cell line
Protocol: The anti-proliferative activities of compounds for use in the combinations of the invention can be determined by measuring the ability of the compounds to inhibition of cell growth in a number of cell lines such as the human colon cancer cell line HCT116. […] The method is based on the ability of viable cells to reduce resazurin to its fluorescent product resorufin. […] The number of viable cells is determined by Alamar Blue assay as before. Cell lines can be obtained from the ECACC (European Collection of cell Cultures).

[3] = target: T1, Human Hsp90α N-terminal domain (Homo sapiens, UniProt P07900); assay: Isothermal titration calorimetry (ITC) binding to Hsp90; details: 25 mM Tris, 100 mM NaCl, 1 mM MgCl2, 1 mM TCEP, 5% DMSO, pH 7.4
T1 construct: Cloning, expression, and purification of the Human Hsp90α N-terminal domain were performed according to published methods; made in house
Protocol: The ability of the compounds for use in the combinations of the invention to bind to human Hsp90 proteins was determined using isothermal titration calorimetry.
Isothermal titration calorimetry (ITC) experiments were performed with a VP-ITC titration calorimeter (Microcal Inc., Northampton, Mass., USA). […] All solutions were filtered and degassed prior to a titration being carried out. The enthalpy change resulting from each injection of ligand was obtained through integration of the calorimetric signal. Data were analysed using Origin 7.0 (Microcal Software Inc., Northampton, Mass.). Heats of dilution were estimated using the final injections of each individual titration and subtracted before data fitting. Different ITC experimental formats were employed in order to obtain compound dissociation constants (Kd's) over a wide range of affinities. […] In this type of experiment the stoichiometry parameter (N) was locked at 1 for data fitting.

[4] = Solid-state stability of L-lactate crystal forms (XRPD); type: physicochemical; details: in air; 40° C. and 75% RH where stated
Description: Samples for X-ray powder diffraction (XRPD) data collection were gently ground by marble mortar and loaded into a crystallographic capillary (from Hampton Research, Quartz or Glass Type 10, 0.4 or 0.7 mm diameter). Diffraction patterns were collected at room temperature using CuKα radiation (λ=1.5418 Å) from a Rigaku rotating anode RU3HR, Osmic blue confocal optics, ¼ c goniometer and a Rigaku HTC image plate detector. 2D Images were collected while spinning φ axis with a detector to crystal distance of 250 mm. Data collection was controlled by CrystalClear software and 2D images were converted to 1D plot (20 vs. Intensity) by Datasqueeze (intensity averaged over the azimuthal angle 0<χ<360° for 2θ range 3-30° in 0.02° steps). In house program AstexXRPD was used for manipulation and visualisation of 1D XRPD patterns.

[5] = test system: OVCAR-3 tumour cells; details: concentrations of 50 and 100 microM; PKB amplified; cited from earlier work
[6] = test system: PKA; details: data published 2002; read-out: IC50, inhibition of PKA; cited from earlier work
[7] = test system: PKG; details: data published 2002; read-out: IC50, inhibition of PKG; cited from earlier work
[8] = test system: PKC; details: data published 2002; read-out: IC50, inhibition of PKC; cited from earlier work
[9] = test system: APL patients; details: in vivo; cited from earlier work
[10] = test system: P-glycoprotein-overexpressing subline of CCRF-CEM; details: subline of leukemic cell line CCRF-CEM; Chou et al. 1998; read-out: IC50 against P-glycoprotein-overexpressing subline; cited from earlier work

hygroscopicity [1]: non-hygroscopic
Compound: CC(C)c1cc(C(=O)N2Cc3ccc(CN4CCN(C)CC4)cc3C2)c(O)cc1O.C[C@H](O)C(=O)O [(2,4-dihydroxy-5-isopropyl-phenyl)-[5-(4-methyl-piperazin-1-ylmethyl)-1,3-dihydro-isoindol-2-yl]-methanone L-lactate salt]
rate of solubility ([1]; compared with free base and hydrochloric and sulphuric acid salts): better rate of solubility than the free base and other salts tested

IC50 [2]: < 1 µM
Compound: CC(C)c1cc(C(=O)N2Cc3ccccc3C2)c(O)cc1O [Example 5, (1,3-Dihydro-1H-isoindol-2-yl)-(2,4-dihydroxy-5-isopropyl-phenyl)-methanone]

Compound: CC(C)c1cc(C(=O)N2Cc3ccc(C(=O)N4CCNCC4)cc3C2)c(O)cc1O [Example 54, (2,4-dihydroxy-5-isopropyl-phenyl)-[5-(piperazine-1-carbonyl)-1,3-dihydro-isoindol-2-yl]-methanone hydrochloride]
IC50 [2]: < 1 µM

Kd [3]: < 0.1 µM
Compound: CC(C)c1cc(C(=O)N2Cc3ccc(CN4CCN(C)CC4)cc3C2)c(O)cc1O [Example 55, (2,4-dihydroxy-5-isopropyl-phenyl)-[5-(4-methyl-piperazin-1-ylmethyl)-1,3-dihydro-isoindol-2-yl]-methanone]

Compound: CC(C)c1cc(C(=O)N2Cc3ccc(CN4CCN(C)CC4)cc3C2)c(O)cc1O.C[C@H](O)C(=O)O [Form FL1, (2,4-dihydroxy-5-isopropyl-phenyl)-[5-(4-methyl-piperazin-1-ylmethyl)-1,3-dihydro-isoindol-2-yl]-methanone L-lactate]
stability of crystal form [4]: stable in air and at 40 °C and 75% RH for at least one month

stability of crystal form [4]: transforms in air into form FL1
Compound: CC(C)c1cc(C(=O)N2Cc3ccc(CN4CCN(C)CC4)cc3C2)c(O)cc1O.C[C@H](O)C(=O)O [Form FL3, (2,4-dihydroxy-5-isopropyl-phenyl)-[5-(4-methyl-piperazin-1-ylmethyl)-1,3-dihydro-isoindol-2-yl]-methanone L-lactate]

Compound: O=S(=O)(NCCNCC=C(c1ccccc1)c1ccccc1)c1cccc2cnccc12 [NL-71-101]
Apoptosis in OVCAR-3 tumour cells [5]: induced apoptosis
IC50 [6]: 9 µM
IC50 [7]: 36 µM
IC50 [8]: 104 µM

Compound: CC1=C(/C=C/C(C)=C/C=C/C(C)=C/C(=O)O)C(C)(C)CCC1 [Tretinoin, all-trans retinoic acid]
remissions in APL patients [9]: 64-100%

Compound: C/C1=C/C[C@@H](/C(C)=C/c2csc(C)n2)OC(=O)C[C@H](O)C(C)(C)C(=O)[C@H](C)[C@@H](O)[C@@H](C)CCC1 [desoxyepothilone B]
IC50 [10]: 0.017 µM

stability of crystal form [4]: stable in air
Compound: CC(C)c1cc(C(=O)N2Cc3ccc(CN4CCN(C)CC4)cc3C2)c(O)cc1O.C[C@H](O)C(=O)O [form FL2, (2,4-dihydroxy-5-isopropyl-phenyl)-[5-(4-methyl-piperazin-1-ylmethyl)-1,3-dihydro-isoindol-2-yl]-methanone L-lactate]
